Results on three compounds are retold here after ChEMBL document CHEMBL1122904, “Bioactive conformation of 1-arylpiperazines at central serotonin receptors” (J Med Chem, 1985).

5-hydroxytryptamine receptor 1B, sequence (P28564 whole entry): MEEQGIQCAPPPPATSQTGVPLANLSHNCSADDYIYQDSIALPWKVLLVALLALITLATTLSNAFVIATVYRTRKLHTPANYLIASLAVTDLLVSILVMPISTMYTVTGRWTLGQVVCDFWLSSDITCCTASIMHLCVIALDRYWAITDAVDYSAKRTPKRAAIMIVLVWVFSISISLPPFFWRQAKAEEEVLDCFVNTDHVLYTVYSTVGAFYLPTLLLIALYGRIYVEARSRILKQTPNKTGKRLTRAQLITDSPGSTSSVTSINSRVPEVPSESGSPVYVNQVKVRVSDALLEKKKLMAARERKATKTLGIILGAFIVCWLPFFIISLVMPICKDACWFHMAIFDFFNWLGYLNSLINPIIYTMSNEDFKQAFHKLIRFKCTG

This test has as its target 5-hydroxytryptamine receptor 1B (Rattus norvegicus, UniProt P28564). In words: Intrinsic affinity towards serotonin receptor from rat frontal cortex by displacement of [3H]5-HT. Type of test: tissue-based.
The compound `FC(F)(F)c1cccc(N2CCNCC2)c1` came in with a Ki of 116 nM. This lies in the sub-micromolar range.

Consider `FC(F)(F)c1ccc2c(c1)N1CCNCC1CC2` (stereo not drawn), for which affinity was put at a Ki of 67 nM. Compared with the last compound, the Ki is about 1.7-fold lower.

In turn, `Clc1cncc(N2CCNCC2)n1` [MK-212] returned a Ki of 3630 nM.
